Assay results reported in ChEMBL document CHEMBL1134200, “Pimarane cyclooxygenase 2 (COX-2) inhibitor and its structure-activity relationship” (Bioorg Med Chem Lett, 2001).

Each compound was assayed against T1, Prostaglandin G/H synthase 2 (Ovis aries, UniProt P79208) (assay: Inhibitory activity against Prostaglandin G/H synthase 2 from sheep placental cotyledons).
T1 sequence (P79208 whole entry): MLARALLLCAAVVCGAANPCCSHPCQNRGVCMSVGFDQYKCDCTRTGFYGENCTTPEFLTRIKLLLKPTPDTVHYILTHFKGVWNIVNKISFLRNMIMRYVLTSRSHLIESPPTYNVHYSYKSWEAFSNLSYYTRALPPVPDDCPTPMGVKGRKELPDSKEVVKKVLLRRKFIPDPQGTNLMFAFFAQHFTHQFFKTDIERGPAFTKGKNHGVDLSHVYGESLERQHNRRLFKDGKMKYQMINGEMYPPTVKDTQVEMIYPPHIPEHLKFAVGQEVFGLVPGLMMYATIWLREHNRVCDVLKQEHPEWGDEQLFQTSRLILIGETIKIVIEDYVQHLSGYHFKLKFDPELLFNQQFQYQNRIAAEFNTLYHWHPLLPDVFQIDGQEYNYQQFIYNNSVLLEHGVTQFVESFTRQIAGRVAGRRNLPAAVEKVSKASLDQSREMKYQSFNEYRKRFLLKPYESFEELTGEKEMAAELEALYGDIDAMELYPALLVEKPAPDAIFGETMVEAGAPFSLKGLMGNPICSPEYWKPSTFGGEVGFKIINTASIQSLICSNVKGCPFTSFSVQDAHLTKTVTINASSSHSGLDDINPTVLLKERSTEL
For `C=C[C@@]1(C)CC=C2C(CCC3[C@](C)(CC(=O)O)CCC[C@@]23C)C1` (stereo not given in full), the IC50 was 82.3 µM.
`C[C@]1(CCF)CC=C2C(CCC3[C@](C)(C(=O)O)CCC[C@@]23C)C1` (stereo not given in full) gave an IC50 of over 1000 µM.
In the case of `C[C@]1(CC(F)F)CC=C2C(CCC3[C@](C)(C(=O)O)CCC[C@@]23C)C1` (stereo not given in full), the IC50 is reported as 796 µM.
With `COCC[C@@]1(C)CC=C2C(CCC3[C@](C)(C(=O)O)CCC[C@@]23C)C1` (stereo not given in full) the IC50 was over 1000 µM.
`C=C[C@@]1(C)CC=C2C(CCC3[C@](C)(CCC/C=C/C(=O)O)CCC[C@@]23C)C1` (stereo not given in full) showed an IC50 of 13.2 µM.
With `C=C[C@@]1(C)CC=C2C(CCC3[C@](C)(CCC(=O)O)CCC[C@@]23C)C1` (stereo not given in full) the IC50 was 105 µM.
For `C=C[C@@]1(C)CC=C2C(CCC3[C@](C)(C(N)=O)CCC[C@@]23C)C1` (stereo not given in full), the IC50 was over 1000 µM.
Compound `C=C[C@@]1(C)CC=C2C(CCC3[C@](C)(C(=O)NO)CCC[C@@]23C)C1` (stereo not given in full) has an IC50 of 819 µM.
Work on `C=C[C@@]1(C)CC=C2C(CCC3[C@](C)(C(=O)OC)CCC[C@@]23C)C1` (stereo not given in full) yielded an IC50 of over 1000 µM.
`C[C@@]1(C2CO2)CC2CCC3[C@](C)(C(=O)O)CCC[C@@]3(C)[C@@]23O[C@H]3C1` (stereo not given in full) gave an IC50 of over 1000 µM.
Compound `C[C@]1(CCF)CC=C2C(CCC3[C@](C)(C(=O)F)CCC[C@@]23C)C1` (stereo not given in full) has an IC50 of 194 µM.
`CC(=O)OCC[C@@]1(C)CC=C2C(CCC3[C@](C)(C(=O)O)CCC[C@@]23C)C1` (stereo not given in full) gave an IC50 of over 1000 µM.
`C[C@]1(CCO)CC=C2C(CCC3[C@](C)(C(=O)O)CCC[C@@]23C)C1` (stereo not given in full) gave an IC50 of over 1000 µM.
`CC[C@@]1(C)CC=C2C(CCC3[C@](C)(C(=O)O)CCC[C@@]23C)C1` (stereo not given in full) showed an IC50 of 425 µM.
Work on `C=C[C@@]1(C)CC=C2C(CCC3[C@](C)(CO)CCC[C@@]23C)C1` (stereo not given in full) [ACANTHOL] yielded an IC50 of over 1000 µM.
